The record followed here is US12404242B2, “Compositions and methods for making and using small molecules in the treatment of cancer” (Reglagene, Inc., priority 2021, dated 2025).

The test system of series [1] is tubulin. Briefly: Tubulin polymerization assay. Particulars: compound 19 at 0.3, 1, 3 and 6 uM; compound 73 at 0.1, 0.3, 1, 3 and 5 uM. It counts as biochemical.
A further series relates to U87 glioblastoma cells. Briefly: Combination with ionizing radiation in U87 cells. Particulars: 2 Gy ionizing radiation and 0.04-0.3 uM compound; versus ionizing radiation alone. It counts as cell-based.
Series [2] is described as follows: Kinetic solubility in aqueous PBS buffer (HPLC-MS). The format is physicochemical. To be noted: kinetic from dmso stock, DMSO stock mixed with aqueous PBS buffer, filtered, read-out: Kinetic Solubility. An outline of the steps: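 A concentrated DMSO stock was mixed with aqueous PBS buffer and filtered. The filtrate was quantified against an HPLC-MS calibration curve.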

In series [3] the test system is tubulin. Put plainly: Tubulin polymerization assay. It counts as biochemical. To be noted: 5 uM (FIG. 41A, 41C) or 1 uM (FIG. 41B). How it is done: FIG. 41A-41C represent exemplary experiments illustrating inhibition of tubulin polymerization. FIG. 41A illustrates effects of compounds 19, 73, 86, 93 and 94 at 5 uM concentration. FIG. 41B illustrates effects of compounds 93, 94, 95 and 96 at 1 uM concentration.
FIG. 41C illustrates effects of compounds 73, 86, 87 and 88 at 5 uM concentration in accordance with certain embodiments of the present disclosure. Colchicine and vincristine are positive controls.
FIG. 42A-42B represent exemplary experiments illustrating inhibition of tubulin polymerization. FIG. 42A illustrates effects of compound 19 at 0.3, 1, 3 and 6 uM concentrations.
FIG. 42B illustrates effects of compound 73 at […] concentration in accordance with certain embodiments of the present disclosure. Colchicine and nocodazole are positive controls.
In another exemplary method, the effect of the compounds herein on tubulin polymerization was determined. FIG. 41A illustrates effects of compounds 19, 73, 86, 93 and 94 at 5 uM concentration, FIG. 41B illustrates effects of compounds 93, 94, 95 and 96 at 1 uM concentration, or FIG. 41C illustrates effects of compounds 87 and 88 at 5 uM concentration in accordance with certain embodiments of the present disclosure. Colchicine and vincristine are positive controls.
The dose dependent effect of compounds 19 and 73 on tubulin polymerization was also determined. FIG. 42A illustrates effects of compound 19 at 0.3, 1, 3 and 6 uM concentrations, and FIG. 42B illustrates effects of compound 73 at 0.1, 0.3, 1, 3 and 5 uM concentration in accordance with certain embodiments of the present disclosure. Colchicine and nocodazole are positive controls.

Series [4] deals with colchicine binding site (tubulin) in MCF7 cell lines. Briefly: N,N'-ethylene-bis(iodoacetamide) (EBI) competition assay in MCF7 cells. It counts as cell-based. To be noted: MCF7 cell lines (FIG. 44). The source says:
FIG. 44 represent N,N′-ethylene-bis(iodoacetamide) (EBI) competition assay with compounds 19, 73 and 93 in MCF7 cell lines showing binding of compounds in colchicine binding site in accordance with certain embodiments of the present disclosure. Colchicine (COL) and nocodazole (NOC) are positive controls while vincristine (VINC) is negative control.
(§1) Microtubule-targeting agents that bind at the colchicine-site of tubulin are of interest in antitumoral therapy due to their action as anti-mitotics. […] Nocodazole was used as a positive control. […] Colchicine (COL) and nocodazole (NOC) are positive controls while vincristine (VINC) is negative control.

The test system of series [5] is LN18 glioblastoma cancer cells. Put plainly: Combination with Temozolomide, Bliss synergy in LN18 cells. The format is cell-based. To be noted: Temozolomide 0 to 1000 uM, compound 0.625 to 10 uM. How it is done:
Synergy was calculated with the Bliss independence model. Compounds were combined at concentrations of 0 to 1000 uM for Temozolomide and 0.625 to 10 uM for compounds 19 and 59.

For series [6], the system named is colchicine-site of tubulin. Briefly: Fluorescence-based colchicine competitive binding assay. Particulars: 50 uM (FIG. 43). How it is done:
FIG. 43 represent fluorescence-based colchicine competitive binding assay with compounds 19, 73 and 93 at 50 uM concentration in accordance with certain embodiments of the present disclosure. Nocodazole (NOC) is positive control.
as §1

For a further series, the system named is LN18 cells. Put plainly: Cell viability (AlamarBlue), LN18 glioma cells. It counts as cell-based. To be noted: Homo sapiens, LN-18, 72 hours of treatment. How it is done: (§2) In another exemplary method, half maximal effective concentration (EC50) was determined for some compounds and their isomers as disclosed herein in a variety of human cancer cell lines. In brief, cells from two prostate cancer cell lines (LNCaP, 22RV1), one glioblastoma cell line (U87), one breast cancer cell line (MCF7), a glioma cell line (LN18), a normal prostate cell line (RWPE1), and a glioblastoma cell line (T98G) were plated in a multi-well plate. After 24 hours, one of the compounds herein was added to the well at increasing concentrations. After 72 hours of treatment, cell viability was assessed using AlamrBlue® (Invitrogen) and fluorescence was read using the CLARIOstar Plus Multilabel Plate Reader (BMG Labtech). Samples were normalized to no treatment controls. EC50 values were determined using GraphPad Prism.
A general note: Resazurin is reduced to fluorescent resorufin, in cell work by metabolically active cells.

Another series deals with 22RV1 cells. Put plainly: Cell viability (AlamarBlue), 22RV1 prostate cancer cells. It counts as cell-based, human. Particulars: Homo sapiens, 22Rv1, 72 h, 72 hours of treatment. The essentials:
(§3)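 Cells were plated and, after 24 hours, exposed to the compound at increasing concentrations for 72 hours. Viability was measured by AlamarBlue fluorescence, normalized to untreated controls, and EC50 values were derived from the concentration-response data.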

For a further series, the system named is U87 cells. Briefly: Cell viability (AlamarBlue), U87 glioblastoma cells. The format is cell-based, human. To be noted: Homo sapiens, U-87 MG, 72 h, 72 hours of treatment. An outline of the steps: as §3
In series [7] the test system is 22Rv1 prostate cancer cells. Briefly: Combination with Rabusertib, Bliss synergy in 22Rv1 cells. It counts as cell-based. To be noted: Rabusertib 0 to 30 uM, compound 0.625 to 5 uM. How it is done:
Synergy was calculated with the Bliss independence model. Compounds were combined at concentrations of 0 to 30 uM for Rabusertib and 0.625 to 5 uM for compounds 73 and 76.

The next series has as its system T98G cells. Briefly: Cell viability (AlamarBlue), T98G glioblastoma cells. It counts as cell-based. Particulars: Homo sapiens, 72 hours of treatment. How it is done:
as §2

A short description of series [8]: Plasma and brain levels in healthy mouse. It counts as in vivo. Particulars: oral dose. The source says:
FIG. 53A-53B represent an exemplary experiment illustrating concentration of Compound 98 in plasma after oral dose (FIG. 53A); FIG. 53B represents levels of Compound 98 in plasma and brain tissue after administration to a rodent model in accordance with certain embodiments of the present disclosure.
FIG. 53A illustrates concentrations of Compound 98 in healthy mouse plasma over time. FIG. 53B and Table 9 illustrates concentrations of Compound 98 in healthy mouse plasma and brain at 0.5, 1 and 2 hrs.

[9] abbreviates: brain, read-out: Healthy Brain concentration.
The mark [10] stands for this setting: plasma, read-out: Plasma concentration.

In brackets after ≈: the same amount, converted by molar mass. Where two headings read alike, the source gives them in different places.

For orientation: kinetic solubility means the concentration staying in solution when a stock, usually in DMSO, is diluted into the medium. In general, EC50 refers to the concentration giving half of the maximal effect. `COC1CC(C(=O)NC(=O)Nc2ccc(Oc3ccc(Cl)cn3)c(C)c2)C1` (stereo not drawn) [Compound 19, N-((4-((5-chloropyridin-2-yl)oxy)-3-methylphenyl)carbamoyl)-3-methoxycyclobutane-1-carboxamide]: the “dose dependent effect on tubulin polymerization” value in the series with tubulin [1] was “significantly inhibit tubulin polymerization in a dose dependent manner”. The “cancer cell viability with ionizing radiation plus compound” value with U87 glioblastoma cells is listed as “reduced cancer cell viability relative to cells treated with ionizing radiation alone”. Further, the kinetic solubility in series [2] turned out to be 5.68 µM (≈ 2.21 µg/mL). For the same molecule, the “effect on tubulin polymerization” value in the series on tubulin [3] is on record as “significantly inhibit tubulin polymerization”. Also, the “EBI competition assay result” value in series [4] is recorded as “inhibitors of EBI binding”. Moreover, the “Bliss Synergy value, combination with Temozolomide” value in [5] (LN18 cells, Bliss independence model) is 29.5. Moreover, the “effect of combination with Temozolomide on cancer cell viability” value in series [5] is “synergistic decrease in cancer cell viability”. Also, the “colchicine competitive binding assay result” value in [6] is “significantly inhibit microtubule assembly”. The concentration giving a half-maximal response (EC50) with LN18 cells is 0.83 µM.
`COC1CC(C(=O)NC(=O)Nc2cc(C)c(Oc3ncc(Cl)cn3)c(F)c2)C1` (stereo not drawn) [Compound 73, N-((4-((5-chloropyrimidin-2-yl)oxy)-3-fluoro-5-methylphenyl)carbamoyl)-3-methoxycyclobutane carboxamide]: the “dose dependent effect on tubulin polymerization” value in the series with tubulin [1] is listed as “significantly inhibit tubulin polymerization in a dose dependent manner”. Further, the results for the EC50 in the series with 22RV1 cells and in the series on U87 cells were 0.068 µM and 0.12 µM, respectively. In addition, the “effect on tubulin polymerization” value in the series on tubulin [3] is “significantly inhibit tubulin polymerization”. In series [7] (22Rv1 cells, Bliss independence model), the “Bliss Synergy value, combination with Rabusertib” value was found to be 20.7. Moreover, the “effect of combination with Rabusertib on cancer cell viability” value in [7] is on record as “synergistic decrease in cancer cell viability”. For the same molecule, the “EBI competition assay result” value in [4] was “inhibitors of EBI binding”. In addition, the “colchicine competitive binding assay result” value in series [6] is on record as “significantly inhibit microtubule assembly”.
Consider `COC12CC(C(=O)NC(=O)Nc3cc(C)c(Oc4ncc(Cl)cn4)c(F)c3)(C1)C2` [Compound 90, N-((4-((5-chloropyrimidin-2-yl)oxy)-3-fluoro-5-methylphenyl)carbamoyl)-3-methoxybicyclo[1.1.1]pentane-1-carboxamide], for which the EC50 in the series with T98G cells was 0.0384 µM; in the series on U87 cells, 0.065 µM; with LN18 cells it was 0.034 µM. The solubility (kinetic) in [2] turned out to be 2.17 µM (≈ 0.913 µg/mL).
Consider `COC1CC(C(=O)NC(=O)Nc2ccc(C)c(Oc3nccs3)c2)C1` (stereo not drawn) [Compound 93, 3-methoxy-N-((4-methyl-3-(thiazol-2-yloxy)phenyl)carbamoyl)cyclobutane-1-carboxamide], for which the solubility (kinetic) in series [2] worked out at 8.9 µM (≈ 3.22 µg/mL). The molecule further had an EC50 with U87 cells of 0.03 µM. In the series with tubulin [3], the “effect on tubulin polymerization” value is “significantly inhibit tubulin polymerization”. The “EBI competition assay result” value in [4] is given as “inhibitors of EBI binding”. In addition, the “colchicine competitive binding assay result” value in series [6] is “significantly inhibit microtubule assembly”.
In the case of `COC12CC(C(=O)NC(=O)Nc3ccc(C)c(Oc4ncccn4)c3)(C1)C2` [Compound 97, 3-methoxy-N-((4-methyl-3-(pyrimidin-2-yloxy)phenyl)carbamoyl)bicyclo[1.1.1]pentane-1-carboxamide], the EC50 is 0.026 µM with T98G cells, 0.02 µM in the series with U87 cells and 0.011 µM in the series with LN18 cells. Also, the kinetic solubility in series [2] worked out at 5.8 µM (≈ 2.14 µg/mL).
As to `COC12CC(C(=O)NC(=O)Nc3ccc(C)c(Oc4ccccn4)c3)(C1)C2` [Compound 98, 3-methoxy-N-((4-methyl-3-(pyridin-2-yloxy)phenyl)carbamoyl)bicyclo[1.1.1]pentane-1-carboxamide], the 50% effective concentration (EC50) worked out at 0.0189 µM in the series on T98G cells, 0.02 µM in the series with U87 cells and 0.07 µM with LN18 cells. Further, the results for the concentration at 0.5 h in [8] (setting [9]) and in series [8] (setting [10]) were 230 ng/g and 424 ng/mL, respectively. Moreover, the concentration at 1 h in series [8] (setting [9]) is 234 ng/g; in series [8] (setting [10]), 490 ng/mL. Besides, the figures for the concentration at 2 h in [8] (setting [9]) and in series [8] (setting [10]) were 257 ng/g and 399 ng/mL, respectively.
